Source: patent US20260000781A1, “FC CONJUGATES INCLUDING AN INHIBITOR OF CD73 AND USES THEREOF” (Cidara Therapeutics, Inc., priority 2022, published 2026)
Several values for one entry are separate records, joined by “and”; a condition that tells them apart may be missing. Equal entries are not always repeated.

Legend:
[1] = system: breast tumor cell line EMT-6; assay: Syngeneic mouse tumor efficacy model with breast tumor cell line EMT-6; type: in vivo; details: EMT-6, IP
Method: Tumor efficacy models were conducted in female BALB/c mice (Charles River laboratories; 18-22 g) injected with the breast tumor cell line EMT-6 (ATCC; CRL-2755). Briefly, EMT-6 cells propagated and prepared by standard methods were resuspended in PBS and injected subcutaneously (in a 100 μL volume) into the shaved right flank of mice. Five days after cell injection, and prior to measurable tumor formation, treatment was initiated via IP injection (10 mL/kg) of test articles or controls. […] The test article was Conjugate 172a dosed at 30 mg/kg twice weekly, for 3 weeks. The final group consisted of mice dosed with both the anti-PD-1 mAb and Conjugate 172a at 30 mg/kg using the respective dosing schedules for each.
Each group consisted of 15 animals and tumors were measured 3× weekly with calipers on Mon/Wed/Fri. Tumor volumes were calculated based on the following formula: [(width×width×length)/2]. All tumors were monitored until the maximum allowed volume was reached (=>2,000 mm^3).
Although occasionally an animal would be removed from study if the tumor grew internally causing undo stress to the animal, or the inability to measure the tumor accurately. Data was analyzed and graphed with Graphpad Prism 6.00. Where conducted, statistical evaluation used the Mann-Whitney variation of the t-test. […]

[2] = target: T1, CD73 expressed on the MDA-MB-231 cell surface (Homo sapiens, UniProt P21589); assay: Cell-based CD73 enzyme inhibition assay using MDA-MB-231 cells (CellTiter-Glo)
T1 construct: host or cells: MDA-MB-231
T1 sequence (P21589 27-549): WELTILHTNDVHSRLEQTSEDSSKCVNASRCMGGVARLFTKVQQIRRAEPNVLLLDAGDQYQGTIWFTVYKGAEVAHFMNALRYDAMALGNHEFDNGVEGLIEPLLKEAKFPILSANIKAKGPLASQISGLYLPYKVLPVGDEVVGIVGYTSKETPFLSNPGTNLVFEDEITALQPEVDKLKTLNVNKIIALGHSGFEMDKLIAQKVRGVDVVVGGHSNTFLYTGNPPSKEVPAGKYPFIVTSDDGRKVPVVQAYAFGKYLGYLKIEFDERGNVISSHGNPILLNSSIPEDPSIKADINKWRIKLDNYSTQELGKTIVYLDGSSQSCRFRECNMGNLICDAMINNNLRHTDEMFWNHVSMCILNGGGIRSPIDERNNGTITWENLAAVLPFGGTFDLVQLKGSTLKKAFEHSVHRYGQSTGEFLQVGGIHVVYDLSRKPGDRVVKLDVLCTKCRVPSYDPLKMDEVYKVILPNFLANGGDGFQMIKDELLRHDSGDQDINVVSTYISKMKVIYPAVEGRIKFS
Method: (§1) The cell-based CD73 enzyme inhibition assay was performed essentially as described above for the cell-free assay, with the following modifications. MDA-MB-231 human breast adenocarcinoma cells (ATCC CRM-HTB-26) were seeded at 2×10^4 cells/well/100 μL into 96-well tissue culture-treated plates (Corning Costar cat no. 3596) and incubated overnight at 37° C., 5% CO2. Cells were incubated with test inhibitors (50 μL/well) and AMP (25 μL/well, final 400 μM) for 3 h at 37° C., 5% CO2 to allow for interaction with CD73 expressed on the MDA-MB-231 cell surface. The 96-well plate was then centrifuged at 125×g for 5 min at room temperature and ATP (25 μL/well, 100 μM final) was combined with supernatant (25 μL/well) in a white opaque 96-well plate (Corning Costar cat no. 3912). The CD73 activity in the supernatant was quantified using the CellTiter-Glo kit (Promega cat no. G7571). Percent CD73 inhibition (y-axis) versus log10 inhibitor concentration (x-axis) were plotted using GraphPad Prism Version 8 and IC50's calculated using nonlinear regression analysis (Sigmoidal, 4 PL).
An additional assay was performed to test the effect of linker length on IC50 potency using the cell-based CD73 enzyme inhibition assay. Conjugate 194, Conjugate 195, and Conjugate 196 have the same small molecule targeting moiety (Int) as Conjugate 172c (batch 9) but with varying linker lengths.

[3] = target: T1, CD73 expressed on the MDA-MB-231 cell surface; assay: Cell-based CD73 enzyme inhibition assay on MDA-MB-231 cells; details: AMP 400 μM, 3 h (FIG. 3)
Method: The cell-based CD73 enzyme inhibition assay was performed essentially as described above for the cell-free assay, with the following modifications.
The cell-based CD73 enzyme inhibition assay was performed essentially as described above for the cell-free assay, with the following modifications. MDA-MB-231 human breast adenocarcinoma cells (ATCC CRM-HTB-26) were seeded at 2×10^4 cells/well/100 μL into 96-well tissue culture-treated plates (Corning Costar cat no. 3596) and incubated overnight at 37° C., 5% CO2. […] The 96-well plate was then centrifuged at 125×g for 5 min at room temperature and ATP (25 μL/well, 100 μM final) was combined with supernatant (25 μL/well) in a white opaque 96-well plate (Corning Costar cat no. 3912).
as §1, with “Cells were incubated with test inhibitors (50 μL/well) and AMP (25 μL/well, final 400 μM) for 3 h at 37° C., 5% CO2 to allow for interaction with CD73 expressed on the MDA-MB-231 cell surface.” left out, “The CD73 activity in the supernatant was quantified using the CellTiter-Glo kit (Promega cat no. G7571).” left out

[4] = MDA-MB-231 cells, AMP 400 μM, 3 h, Table 29 experiment

| IC50 [2, 4] | IC50 [3] [nM] | IC50 ([2]; additional assay on linker length, Table 30 experiment) [nM] | SMILES | % Complete regression (Day 36) ([1]; 15 animals per group, regimens as for % tumor reduction) [%] | % Tumor reduction (Day 22) ([1]; Conjugate 172a 30 mg/kg twice weekly for 3 weeks, AB680 30 mg/kg daily, anti-PD-1 mAb on Day 0, 2, 4, 7, 9, 12) [%] |
| --- | --- | --- | --- | --- | --- |
|  |  |  | C[C@H](Nc1cc(Cl)nc2c1cnn2[C@@H]1O[C@H](COP(=O)(O)CP(=O)(O)O)[C@@H](O)[C@H]1O)c1ccccc1F [AB680] | 6.7 | 0 |
| 0.9 nM and 0.87 nM | 0.31 |  | COC[C@](CO)(OC[C@H]1O[C@@H](n2ncc3c(NC4CCCC4)nc(Cl)nc32)[C@H](O)[C@@H]1O)P(=O)(O)O [OP-5244] |  |  |
| 3.7 nM | 4.87 | 4 | O=P(O)(O)COC[C@H]1O[C@@H](n2ncc3c(N4CC5(CCc6ccccc65)C4)nc(Cl)nc32)[C@H](O)[C@@H]1O [SHR170008] |  |  |
